We go through one compound from US20190269129A1, “COMPOSITION CONTAINING 1,2-DIBROMO-2,4-DICYANOBUTANE (DBDCB) AND ZINC PYRITHIONE (ZPT)” (LANXESS Deutschland GmbH, priority 2014, published 2019).

Holding throughout (type): cell-based
What all share (conditions): 0.05 wt % biocide added

Test [1] has as its system Molds: Acremonium strictum, Aspergillus niger and Geotrichum candidu. The test can be described thus: Microbiological stress test, preservation of a polymer emulsion: molds. The text has this:
(§1) The preserving effect of an inventive composition comprising DBDCB and ZPT in a polymer emulsion (acrylate-based, pH=6.5) was investigated using a microbiological stress test. The microbiological stress test examines the susceptibility of water-based systems to microbial attack and the effect of preservatives. To this end, the preservatives are incorporated in defined concentrations into the water-based systems. […] Having knowledge of the microorganism populations prevalent in polymer emulsions and dispersions the experiment employed a mixture of the following microorganism types for testing: Molds: Acremonium strictum, Aspergillus niger and Geotrichum candidu.

The subject of test [2] is Bacteria: Escherichia coli, Pseudomonas aeruginosa and Staphylococcus aureus. The test is described as follows: Microbiological stress test, preservation of a polymer emulsion: bacteria.
Excerpt: as §1, with “Bacteria: Escherichia coli, Pseudomonas aeruginosa” for “Molds: Acremonium strictum, Aspergillus niger”, “Staphylococcus aureus.” for “Geotrichum candidu.”

Test [3] relates to Yeasts: Candida albicans and Rhodotorula rubra. The test is described as follows: Microbiological stress test, preservation of a polymer emulsion: yeasts.
Excerpt: as §1, with “Yeasts: Candida albicans” for “Molds: Acremonium strictum, Aspergillus niger”, “Rhodotorula rubra.” for “Geotrichum candidu.”

Where [4] appears, read: week 1, polymer emulsion pH 6.5.
Where [5] appears, read: week 2, polymer emulsion pH 6.5.
The mark [6] stands for this setting: week 3, polymer emulsion pH 6.5.
[7] abbreviates: week 4, polymer emulsion pH 6.5.
The mark [8] stands for this setting: week 5, polymer emulsion pH 6.5.
Setting [9] is: week 6, polymer emulsion pH 6.5.

Regarding `[O-][n+]1ccccc1[S-].[O-][n+]1ccccc1[S-].[Zn+2]` [ZPT, zinc bis[2-pyridinethiolate]-N,N-dioxide], the figures for the “Activity of the biocides determined 1 week after germ addition, week 1” value in test [1] (setting [4]), in test [2] (setting [4]) and in test [3] (setting [4]) were 2 (markedly reduced microbe level is observed (10^3−10^1 bacteria/10^2−10^1 mold/yeast cells per g) (score of 2=good)), 0 (no reduction or only a minor reduction of the microbe level is observed (residual level of at least 10^5 bacteria/10^4 mold/yeast cells per g) (score of 0=poor)) and 2 (markedly reduced microbe level is observed (10^3−10^1 bacteria/10^2−10^1 mold/yeast cells per g) (score of 2=good)), respectively. For the same compound, the “Activity of the biocides determined 1 week after germ addition, week 2” value was 2 (markedly reduced microbe level is observed (10^3−10^1 bacteria/10^2−10^1 mold/yeast cells per g) (score of 2=good)) in test [1] (setting [5]), 0 (no reduction or only a minor reduction of the microbe level is observed (residual level of at least 10^5 bacteria/10^4 mold/yeast cells per g) (score of 0=poor)) in test [2] (setting [5]) and 2 (markedly reduced microbe level is observed (10^3−10^1 bacteria/10^2−10^1 mold/yeast cells per g) (score of 2=good)) in test [3] (setting [5]). Moreover, the “Activity of the biocides determined 1 week after germ addition, week 3” value in test [1] (setting [6]) is 2 (markedly reduced microbe level is observed (10^3−10^1 bacteria/10^2−10^1 mold/yeast cells per g) (score of 2=good)); in test [2] (setting [6]), 0 (no reduction or only a minor reduction of the microbe level is observed (residual level of at least 10^5 bacteria/10^4 mold/yeast cells per g) (score of 0=poor)); in test [3] (setting [6]), 2 (markedly reduced microbe level is observed (10^3−10^1 bacteria/10^2−10^1 mold/yeast cells per g) (score of 2=good)). Also, the “Activity of the biocides determined 1 week after germ addition, week 4” value in test [1] (setting [7]) is 2 (markedly reduced microbe level is observed (10^3−10^1 bacteria/10^2−10^1 mold/yeast cells per g) (score of 2=good)); in test [2] (setting [7]), 0 (no reduction or only a minor reduction of the microbe level is observed (residual level of at least 10^5 bacteria/10^4 mold/yeast cells per g) (score of 0=poor)); in test [3] (setting [7]), 2 (markedly reduced microbe level is observed (10^3−10^1 bacteria/10^2−10^1 mold/yeast cells per g) (score of 2=good)). Moreover, the results for the “Activity of the biocides determined 1 week after germ addition, week 5” value in test [1] (setting [8]), in test [2] (setting [8]) and in test [3] (setting [8]) were 2 (markedly reduced microbe level is observed (10^3−10^1 bacteria/10^2−10^1 mold/yeast cells per g) (score of 2=good)), 0 (no reduction or only a minor reduction of the microbe level is observed (residual level of at least 10^5 bacteria/10^4 mold/yeast cells per g) (score of 0=poor)) and 2 (markedly reduced microbe level is observed (10^3−10^1 bacteria/10^2−10^1 mold/yeast cells per g) (score of 2=good)), respectively. Further, the “Activity of the biocides determined 1 week after germ addition, week 6” value was 2 (markedly reduced microbe level is observed (10^3−10^1 bacteria/10^2−10^1 mold/yeast cells per g) (score of 2=good)) in test [1] (setting [9]), 0 (no reduction or only a minor reduction of the microbe level is observed (residual level of at least 10^5 bacteria/10^4 mold/yeast cells per g) (score of 0=poor)) in test [2] (setting [9]) and 2 (markedly reduced microbe level is observed (10^3−10^1 bacteria/10^2−10^1 mold/yeast cells per g) (score of 2=good)) in test [3] (setting [9]).
